Data on 9 compounds can be found in publication PMC11510666, “Thiazolidinedione-Conjugated Lupeol Derivatives as Potent Anticancer Agents Through a Mitochondria-Mediated Apoptotic Pathway” (Molecules, 2024).

Each structure is given as a SMILES string. Where “and” joins values, the source holds several entries; their conditions need not be identical. Equal entries are not always repeated.

One series concerns human lung cancer A549. Description: MTT antiproliferative assay, A549. It is filed as cell-based. The conditions noted are these: 48 h, mean ± SD, three independent experiments. The protocol: (§1) These cell lines were cultured in Dulbecco's Modified Eagle Medium containing 10% (v/v) fetal bovine serum (FBS, Wisent) and 1% (v/v) Penicillin-Streptomycin Solution mixture (Beyotime, Shanghai, China) at 37 °C under 5% CO2. An MTT assay evaluated the cytotoxicity of lupeol derivatives toward the A549, MCF-7, HepG2, and LO2 cell lines. The cells were inoculated into 96-well plates (3 × 10^3 cells/well) and cultured for 24 h at 37 °C in 5% CO2. After that, a gradient concentration of the test drug was added to continue the incubation for 48 h. Subsequently, the MTT solution continued to incubate with the cells for 4 h. Afterward, the upper waste layer was discarded, and DMSO was added ([…], Tianjin, China). After the formazan completely dissolved, the absorbance of each well at 490 nm was measured with a microplate reader. The mean values were derived from three independent experiments.
In general terms: Tetrazolium dyes change colour on reduction, which living cells bring about.

In series [1] the test system is human breast cancer MCF-7. Description: MTT antiproliferative assay, MCF-7. It is filed as cell-based. The conditions noted are these: 48 h, mean ± SD, three independent experiments. As for the experimental part: as §1
Series [2] has as its system human hepatocarcinoma HepG2. Description: MTT antiproliferative assay, HepG2. In kind it is cell-based. The settings on record: for SI (selectivity index): IC50 values on L02 cells/HepG2 cells; for IC50: MTT, 48 h, mean ± SD, three independent experiments. As for the experimental part: as §1
Another series concerns human hepatic LO2 cells. The settings on record: for IC50: read-out: IC50 LO2, MTT, 48 h, mean ± SD, three independent experiments. The protocol: as §1
Series [3] has as its system HepG2 cells. Description: Annexin V-FITC/PI double staining, flow cytometry. The conditions noted are these: HepG2, 48 h, blank control 5.75%. It is filed as cell-based, human. The protocol: (§2) To further evaluate compound 12i-induced HepG2 cell apoptosis, HepG2 cells were treated with this compound (at 0, 2, 4, and 8 μM), followed by staining with Acridine Orange/Ethidium bromide (AO/EB). […] Subsequently, we used Annexin V-FITC/PI double staining to characterize the effect of compound 12i based on the total apoptosis rate of HepG2 cells.
HepG2 cells were inoculated into 6-well plates for 24 h, attached via cell adhesion, and then treated with 12i (0, 2, 4, and 8 μM) for 48 h. The cells were harvested and treated with Annexin V-FITC/PI staining solution, and the data were gathered using a flow cytometer (FACS Calibur, BD, Milpitas, CA, USA).

For series [4], the system named is HepG2 cells. The conditions noted are these: HepG2, 2, 4 and 8 μM, increasing concentration. The protocol:
as §2

Series [5] has as its system HepG2 cells. Nature of the series: Mitochondrial membrane potential, JC-1 staining. It is filed as cell-based, human. An excerpt: MMP depolarization is one of the landmark events of apoptosis. To investigate the impact of 12i on MMP depolarization in HepG2 cells, we used 5,5′,6,6,6,6′-tetrachloro-1,1′,3,3′-tetraethylioiodine carbocyan (JC-1) staining. When the mitochondrial membrane potential is high, JC-1 aggregates in the substrate to form a polymer (J-aggregates), which produces red fluorescence. When the mitochondrial membrane potential is low, JC-1 cannot accumulate in the mitochondrial matrix and exists as a monomer to produce green fluorescence.
HepG2 cells were inoculated into 6-well plates for 24 h, attached via cell adhesion, and then treated with 12i (0, 2, 4, and 8 μM) for 48 h. The cells were cleaned with PBS and treated with JC-1 solution at 25 °C for 20 min, and the data were gathered using a flow cytometer.
HepG2 cells were inoculated into 6-well plates for 24 h, attached via cell adhesion, and then treated with 12i (0, 2, 4, and 8 μM) for 48 h. The cells were cleaned with PBS and treated with JC-1 solution at 25 °C for 20 min, and the samples were collected and imaged using confocal microscopy.

Series [6] concerns Bax, Bcl-2, cleaved caspase-7, cleaved caspase-9 in HepG2 cells. The settings on record: HepG2, 2, 4 and 8 μM, 48 h, Western blot. The protocol: The GAPDH expression level was used as an internal control group.
(§3) HepG2 cells were seeded in 6-well plates at a density of 1 × 10^6 overnight and treated with 12i (2, 4, and 8 μM) for 48 h. They were then washed twice with cooled PBS to remove the medium and lysed using a lysis buffer containing RIPA (Beyotime, Shanghai, China). The protein levels were quantified using a bicinchoninic acid protein assay kit (Beyotime, Shanghai, China). The proteins were separated via SDS-PAGE electrophoresis and transferred to PVDF membranes (Beyotime, Shanghai, China). After blocking with 5% skim milk for 2 h, the membranes were incubated with the primary antibody overnight at 4 °C, followed by 2 h with the specific secondary antibody. The antibodies were sourced commercially, including Bax (5023T, Cell Signaling Technology, Danvers, MA, USA), Bcl2 (3498T, Cell Signaling Technology, Danvers, MA, USA), Caspase-7 (12827T, Cell Signaling Technology, Danvers, MA, USA), Caspase-9 (9508T, Cell Signaling Technology, Danvers, MA, USA), Cleaved-Caspase-7 (8438T, Cell Signaling Technology, Danvers, MA, USA), Cleaved-Caspase-9 (7237T, Cell Signaling Technology, Danvers, MA, USA), GAPDH (2118T, Cell Signaling Technology, Danvers, MA, USA), PI3K (4249T, Cell Signaling Technology, Danvers, MA, USA), p-PI3K (4228T, Cell Signaling Technology, Danvers, MA, USA), AKT (4691T, Cell Signaling Technology, Danvers, MA, USA), p-AKT (4060T, Cell Signaling Technology, Danvers, MA, USA), mTOR (2972T, Cell Signaling Technology, Danvers, MA, USA). Immunoreactive bands were visualized using BeyoECL Plus (Beyotime, Shanghai, China) and scanned in a ChemiDoc MP Imaging System (Bio-Rad, Shanghai, China).
For orientation: In western blotting, separated proteins are transferred to a membrane and probed.

Series [7] deals with P-Akt, P-PI3K, P-mTOR in HepG2 cells. The settings on record: HepG2, 2, 4 and 8 μM, 48 h, Western blot, dose-dependent. As for the experimental part: Therefore, Western blotting was conducted to determine the expression of the key proteins Akt, P-Akt, PI3K, P-PI3K, mTOR, and P-mTOR.
as §3

Series [8] has as its system HepG2 cells. The settings on record: HepG2, 2, 4 and 8 μM, 48 h, DCFH-DA.
Method: After the cells were washed with PBS, the supernatant was removed and incubated with 500 μL of 10 μm/L DCFH-DA solution at 25 °C for 20 min, and the data were gathered using a flow cytometer.
After the cells were washed with PBS, the supernatant was removed and incubated with 500 μL of 10 μm/L DCFH-DA solution at 25 °C for 20 min, and the samples were collected and imaged using confocal microscopy.

As usually defined, the IC50 is the concentration at which inhibition is half-maximal. For the compound `C=C(C)C1CCC2(C)CCC3(C)C(CCC4C5(C)CCC(OC(=O)NCCNC(=O)CN6C(=O)SC(=Cc7ccc(F)cc7)C6=O)C(C)(C)C5CCC43C)C12` (centres unmarked) [Compound 12a, Lupeol-3-[(1-Ethylenediaminyl)-4]-5-(4-Fluorobenzylidene)-2,4-Thiazolidinedione], the IC50 with human lung cancer A549 came to 10.5 ± 0.56 µM; in series [1], 16.8 ± 1.29 µM; in series [2], 16.5 ± 0.54 µM; in the series with human hepatic LO2 cells, 71.03 ± 0.57 µM. For the same compound, the “SI (selectivity index)” value in [2] is recorded as 4.30.
For `C=C(C)C1CCC2(C)CCC3(C)C(CCC4C5(C)CCC(OC(=O)NCCNC(=O)CN6C(=O)SC(=Cc7ccc(Cl)cc7)C6=O)C(C)(C)C5CCC43C)C12` (centres unmarked) [Compound 12b, Lupeol-3-[(1-Ethylenediaminyl)-4]-5-(4-Chlorobenzylidene)-2,4-Thiazolidinedione], in that order: 17.1 ± 1.28 µM, 19.1 ± 1.63 µM, 17.7 ± 0.79 µM, 76.87 ± 0.69 µM and 4.35.
Taken in the same sequence, the figures for `C=C(C)C1CCC2(C)CCC3(C)C(CCC4C5(C)CCC(OC(=O)NCCNC(=O)CN6C(=O)SC(=Cc7ccc(C)cc7)C6=O)C(C)(C)C5CCC43C)C12` (centres unmarked) [Compound 12c, Lupeol-3-[(1-Ethylenediaminyl)-2]-5-(4-Methylbenzylidene)-2,4-Thiazolidinedione] were 13.4 ± 0.79 µM, 14.3 ± 0.78 µM, 10.7 ± 0.12 µM, 40.68 ± 0.31 µM and 3.79.
With `C=C(C)C1CCC2(C)CCC3(C)C(CCC4C5(C)CCC(OC(=O)NCCNC(=O)CN6C(=O)SC(=Cc7ccc(C(C)(C)C)cc7)C6=O)C(C)(C)C5CCC43C)C12` (centres unmarked) [Compound 12d, Lupeol-3-[(1-Ethylenediaminyl)-4]-5-(4-Tert-Butylphenyl)-2,4-Thiazolidinedione], the IC50 with human lung cancer A549 is 16.4 ± 0.43 µM; in series [1], 9.12 ± 0.24 µM; in series [2] it was 15.8 ± 0.68 µM; in the series with human hepatic LO2 cells, 59.9 ± 1.03 µM. Also, the “SI (selectivity index)” value in [2] is 3.80.
Taken in the same sequence, the figures for `C=C(C)C1CCC2(C)CCC3(C)C(CCC4C5(C)CCC(OC(=O)NCCNC(=O)CN6C(=O)SC(=Cc7ccccc7OC)C6=O)C(C)(C)C5CCC43C)C12` (centres unmarked) [Compound 12e, Lupeol-3-[(1-Ethylenediaminyl)-4]-5-(2-Methoxybenzylidene)-2,4-Thiazolidinedione] were 13.8 ± 0.76 µM, 14.4 ± 0.72 µM, 12.9 ± 0.52 µM, 57.7 ± 1.14 µM and 4.46.
For `C=C(C)C1CCC2(C)CCC3(C)C(CCC4C5(C)CCC(OC(=O)NCCNC(=O)CN6C(=O)SC(=Cc7ccc(OC)c(OC)c7OC)C6=O)C(C)(C)C5CCC43C)C12` (centres unmarked) [Compound 12f, Lupeol-3-[(1-Ethylenediaminyl)-4]-5-(2,3,4-Trimethoxybenzylidene)-2,4-Thiazolidinedione], in that order: 9.68 ± 0.52 µM, 10 ± 0.22 µM, 9.43 ± 0.78 µM, 35.53 ± 0.34 µM and 3.77.
For the compound `C=C(C)C1CCC2(C)CCC3(C)C(CCC4C5(C)CCC(OC(=O)NCCNC(=O)CN6C(=O)SC(=Cc7ccco7)C6=O)C(C)(C)C5CCC43C)C12` (centres unmarked) [Compound 12g, Lupeol-3-[(1-Ethylenediaminyl)-4]-5-(2-Furanylmethylene)-2,4-Thiazolidinedione], the IC50 with human lung cancer A549 is 15.7 ± 1.42 µM; in [1] it was 16.4 ± 0.87 µM; in series [2], 14.3 ± 0.56 µM; in the series on human hepatic LO2 cells, 63.2 ± 1.31 µM. The “SI (selectivity index)” value in [2] came out at 4.42.
For `C=C(C)C1CCC2(C)CCC3(C)C(CCC4C5(C)CCC(OC(=O)NCCNC(=O)CN6C(=O)SC(=Cc7cccs7)C6=O)C(C)(C)C5CCC43C)C12` (centres unmarked) [Compound 12h, Lupeol-3-[(1-Ethylenediaminyl)-4]-5-(2-Thienylmethylene)-2,4-Thiazolidinedione], the IC50 worked out at 13.4 ± 1.08 µM in the series with human lung cancer A549, 17.3 ± 1.28 µM in [1], 18.6 ± 1.49 µM in [2] and 77.5 ± 1.27 µM in the series on human hepatic LO2 cells.
As to `C=C(C)C1CCC2(C)CCC3(C)C(CCC4C5(C)CCC(OC(=O)NCCNC(=O)CN6C(=O)SC(=CC(C)C)C6=O)C(C)(C)C5CCC43C)C12` (centres unmarked) [Compound 12i, Lupeol-3-[(1-Ethylenediaminyl)-4]-5-(2-Methylpropylidene)-2,4-Thiazolidinedione], half-maximal inhibition with human lung cancer A549 (IC50) required 10.1 ± 0.62 µM. For the same compound, in series [1], it took 8.74 ± 0.34 µM to reach half-maximal inhibition (IC50). The “potency against HepG2 relative to lupeol” value in [2] (HepG2, IC50 lupeol / IC50 compound) was 9.9 fold and 9.91 fold. The compound further yielded an IC50 in series [2] of 4.4 ± 0.02 µM. For the same compound, in the series with human hepatic LO2 cells, the “cytotoxicity to human hepatic cell LO2 (in words)” value is “weakly cytotoxic” and the IC50 came to 29.2 ± 0.53 µM. In the series on HepG2 cells [3] (2 μM), this compound came in with a total apoptosis rate of 11.46%. Besides, the total apoptosis rate in the series on HepG2 cells [3] (4 μM) is 22.40%. Further, the total apoptosis rate in the series with HepG2 cells [3] (8 μM) was 60.50%. Also, the “morphological variations after AO/EB staining” value in the series on HepG2 cells [4] is “the green fluorescence gradually weakened and turned orange–red”. For the same compound, the “effect on mitochondrial membrane potential (Δψm)” value in the series with HepG2 cells [5] (HepG2, 2, 4 and 8 μM, JC-1 fluorescence microscopy) is listed as “significantly reduce Δψm”. Further, in the series with HepG2 cells [5] (HepG2, 48 h, 8 μM, blank control 1.95%), the “monomer rate of JC-1” value is listed as 35.8%. In addition, in series [6] (GAPDH internal control), the Bax expression entry is recorded as “upregulate” and the Bcl-2 expression result is “downregulate”. For the same compound, in series [6] (dose dependently), the “cleaved caspase-7 expression level” value is “activated” and the “cleaved caspase-9 expression level” value was “activated”. Also, in series [7], the “phosphorylation level of P-Akt” value was “reduce the phosphorylation levels”, the “phosphorylation level of P-PI3K” value is listed as “reduce the phosphorylation levels” and the “phosphorylation level of P-mTOR” value is “reduce the phosphorylation levels”. Also, the ROS production result in the series on HepG2 cells [8] is “induces ROS production dose-dependently”.
